Data set [1] has as its system HepG2. Description: Hepatoprotective activity against H2O2-induced cell death in human HepG2 cells assessed as reduction in AST level at 74.60 uM preincubated for 1 hr followed by H2O2-stimulation and measured after 24 hrs. Format: functional. As to conditions: dose 74.6 µM.
Data set [2] relates to HepG2. The data set can be described thus: Hepatoprotective activity against H2O2-induced cell death in human HepG2 cells assessed as reduction in AST level at 18.65 uM preincubated for 1 hr followed by H2O2-stimulation and measured after 24 hrs. Format: functional.
For data set [3], the system named is HepG2. Description: Hepatoprotective activity against H2O2-induced cell death in human HepG2 cells assessed as reduction in ALT level at 74.60 uM preincubated for 1 hr followed by H2O2-stimulation and measured after 24 hrs. Format: functional. As to conditions: dose 74.6 µM.
For data set [4], the system named is Huh-7. Description: Protection against CCl4-induced cell damage in human Huh-7 cells assessed as reduction in ALT level at […] (reference value: 40.2 U/ml). Format: functional. More on the design: dose or concentration left out as unconfirmed.
The test system of data set [5] is HepG2. The data set can be described thus: Hepatoprotective activity against H2O2-induced human HepG2 cells assessed as increase in AST level at 25.55 uM. Format: functional.
Data set [6] has as its system HepG2. Description: Hepatoprotective activity against H2O2-induced human HepG2 cells assessed as increase in ALT level. Type of data set: functional.
Data set [7] concerns Mus musculus. The data set can be described thus: Hepatoprotective activity against CCl4-induced liver injury mouse model assessed as reduction in ALT at 20 ug/mL, ip relative to control (reference value: 13.23 IU/L). Type of data set: functional. As to conditions: dose 20.0 µg/ml.
The subject of data set [8] is Mus musculus. The data set can be described thus: Hepatoprotective activity against D-GaIN/LPS induced liver injury mouse model assessed as reduction in LDH level at 100 mg/kg, ip relative to control. Format: functional. More on the design: scale not given: the % may be the effect or the level left.
Data set [9] concerns Mus musculus. Description: Hepatoprotective activity against CCl4-induced liver injury mouse model assessed as increase in SOD level at 20 ug/mL, ip relative to control (reference value: 5.89 IU/L). Type of data set: functional. As to conditions: dose 20.0 µg/ml.
Data set [10] relates to Hepatocyte. The data set can be described thus: Hepatoprotective activity against CCL4-induced rat hepatocyte toxicity assessed as decrease in GOT level at 3.33 mg/mL preincubated for 30 mins followed by CCL4 addition and measured after 180 mins by colorimetric method. As to conditions: time 210.0 min. Type of data set: functional.
Data set [11] concerns Mus musculus. Description: Hepatoprotective activity against D-GaIN/LPS induced liver injury mouse model assessed as reduction in ALT at 100 mg/kg, ip relative to control. The arrangement: scale not given: the % may be the effect or the level left. Type of data set: functional.
In data set [12] the test system is Mus musculus. The data set can be described thus: Hepatoprotective activity against D-GaIN/LPS induced liver injury mouse model assessed as reduction in AST at 100 mg/kg, ip relative to control. Format: functional. The arrangement: scale not given: the % may be the effect or the level left.
For data set [13], the system named is Mus musculus. Description: Hepatoprotective activity against CCl4-induced liver injury mouse model assessed as reduction in MDA level at 20 ug/mL, ip relative to control (reference value: 9.27 IU/L). Format: functional. Particulars: dose 20.0 µg/ml.
The test system of data set [14] is Hepatocyte. Description: Hepatoprotective activity against CCL4-induced rat hepatocyte toxicity assessed as decrease in ALP level at 3.33 mg/mL preincubated for 30 mins followed by CCL4 addition and measured after 180 mins by colorimetric method. Format: functional. As to conditions: time 210.0 min.
The subject of data set [15] is Hepatocyte. The data set can be described thus: Hepatoprotective activity against CCL4-induced rat hepatocyte toxicity assessed as decrease in GPT level at 3.33 mg/mL preincubated for 30 mins followed by CCL4 addition and measured after 180 mins by colorimetric method. Type of data set: functional. As to conditions: time 210.0 min.
Data set [16] has as its system Huh-7. The data set can be described thus: Hepatoprotective activity against CCL4-induced mouse model in human Huh-7 cells assessed as decrease in ALT level at 100 ug/mL. Type of data set: functional. Particulars: dose 100.0 µg/ml.
The subject of data set [17] is Mus musculus. Description: Hepatoprotective activity against CCl4-induced liver injury mouse model assessed as reduction in AST at 20 ug/mL, ip relative to control (reference value: 9.27 IU/L). As to conditions: dose 20.0 µg/ml. Format: functional.
The subject of data set [18] is HepG2. The data set can be described thus: Cytoprotective activity against t-BHP induced cell death in human HepG2 cells assessed as cell survival rate at 5 uM relative to control. Type of data set: functional.
The test system of data set [19] is L02. The data set can be described thus: Protection against D-GalN-induced toxicity in L02 cells […] assessed as reduction in cell growth at 6.25 microg/ml relative to control. As to conditions: dose 6.25 µg/ml. More on the design: scale not given: the % may be the effect or the level left. Format: functional, Homo sapiens.
Data set [20] deals with L02. The data set can be described thus: Protection against D-GalN-induced toxicity in L02 cells […] assessed as reduction in cell growth at 3.13 microg/ml relative to control. Format: functional, Homo sapiens. More on the design: scale not given: the % may be the effect or the level left. As to conditions: dose 3.13 µg/ml.
Data set [21] has as its system L02. The data set can be described thus: Protection against D-GalN-induced toxicity in L02 cells […] assessed as reduction in cell growth relative to control. The arrangement: scale not given: the % may be the effect or the level left. Type of data set: functional, Homo sapiens.
The nature of data set [22]: Hepatotoxicity in D-GaIN induced Wistar rat assessed as change in induction of TAT level for 10 days relative to control. Particulars: in vivo, 240 h, time 10 day. Type of data set: toxicity. More on the design: concentration or dose not given beside the values.
Data set [23] in a line: Hepatotoxicity in acetaminophen-induced Wistar rat assessed as reduction in liver damage by measuring histological score at 50 to 100 mg/kg (reference value: 4.83). Format: toxicity, organism-based. As to conditions: in vivo, dose 50-100 mg/kg.
Data set [24] is filed under the species Mus musculus. The data set can be described thus: Hepatoprotective activity against D-galactosamine-induced liver injury mouse model assessed as […] leakage at 50 ug/ml. As to conditions: dose 50 µg/ml. Type of data set: functional.
Data set [25] is described as follows: Hepatotoxicity in D-GaIN induced Wistar rat assessed as change in GTP leakage level for 10 days relative to control. Particulars: in vivo, 240 h, time 10 day. Type of data set: toxicity.
The test system of data set [26] is Hepatocyte. Description: Hepatoprotective activity against CCL4-induced rat hepatocyte toxicity assessed as decrease in IL-1beta level at 0.1 mg/mL relative to control. The arrangement: scale not given: the % may be the effect or the level left. Format: functional.
Data set [27] concerns HepG2. Description: Hepatoprotective activity against H2O2-induced human HepG2 cells assessed as increase in AST level at 186.00 uM. Type of data set: functional.
The species entered for data set [28] is Mus musculus. The data set can be described thus: Protection against D-GaIN/TNFalpha induced cell death in mouse liver parenchymal cells assessed as reduction in GPT level measured after 2 hrs. Format: functional, cell-based.

pIC50: −log10 of the molar value.

On to `C=C(C)[C@@H]1C[C@H](O)C2=C(C(=O)C[C@]3(C)[C@@H]([C@H](C)CCC(=O)OC)CC[C@@]23C)[C@@]1(C)CCC(=O)O`, for which the figures for the Activity with HepG2 [1], in the data set with HepG2 [2] and with HepG2 [3] were 10.53 U/L, 19.56 U/L and 7.22 U/L, respectively.

For the compound `C[C@@H]1CC[C@]2(C(=O)O[C@@H]3O[C@H](CO)[C@@H](O)[C@H](O)[C@H]3O)CC[C@]3(C)C(=CC[C@@H]4[C@@]5(C)C[C@H](O)[C@H](O)C(C)(C)[C@@H]5CC[C@]43C)[C@@H]2[C@]1(C)O`, the Activity in the data set on Huh-7 [4] came out at 15.4 U/ml.

Take `CC(=O)[C@H]1CC(=O)[C@@]2(C)C3=C(C(=O)C[C@]12C)[C@@]1(C)CCC(=O)C(C)(C)[C@@H]1CC3=O`: the Activity with HepG2 [5] came to 26.83 U/L; in the data set with HepG2 [6], 21.42 U/L.

With SILYMARIN, the Activity in the data set with Mus musculus [7] was found to be 4.82 U/ml; with Mus musculus [8], 43%; with Mus musculus [9], 21.7 U/ml; with Hepatocyte [10], 18.5 IU/L; in the data set on Mus musculus [11], 68%; in the data set on Mus musculus [12], 66%. Moreover, the Activity in the data set on Mus musculus [13] worked out at 3.84 nmol/mL; in the data set on Hepatocyte [14], 13.7 IU/L; with Hepatocyte [15], 11.3 IU/L; with Huh-7 [16], 10.2 U/ml; in the data set with Mus musculus [17], 4.24 IU/L.

Turning to `CC(C(=O)O)[C@H]1CC[C@@]2(C)[C@@H]3C(=O)C=C4[C@@H](CC[C@@H](O)C4(C)C)[C@]3(C)CC[C@]12C` (some centres undefined), in the data set on HepG2 [18], the Activity is on record as 55.2%.

Turning to `CC(C)(O[C@@H]1O[C@H](CO)[C@@H](O)[C@H](O)[C@H]1O)[C@@H]1CC[C@@H]([C@H]2[C@H](O)C[C@]3(C)[C@@H]2CC[C@@H]2[C@@]4(C)CC[C@H](O[C@@H]5O[C@H](CO)[C@@H](O)[C@H](O)[C@H]5O[C@@H]5O[C@H](CO)[C@@H](O)[C@H](O)[C@H]5O)C(C)(C)[C@@H]4CC[C@]23C)O1`, the values for the Activity in the data set with L02 [19], in the data set on L02 [20] and in the data set with L02 [21] were 22.8%, 22.8% and 46.7%, respectively.

As to `CC1(C)CC[C@]2(C)CC[C@]3(C)C(=CC[C@@H]4[C@@]5(C)CC[C@H](O)C(C)(C)[C@@H]5CC[C@]43C)[C@@H]2C1` [beta-AMYRIN], the Activity in [22] is given as 40%; in [23], 2.17; in the data set listed under Mus musculus [24], 17.3%; in data set [25], 49.4%.

`C[C@H]1O[C@@H](O[C@H]2CC[C@@]3(C)[C@@H](CC[C@]4(C)[C@@H]3C=C[C@]35OC[C@@]6(CCC(C)(C)C[C@H]63)[C@@H](O)C[C@]54C)[C@]2(C)CO)[C@H](O[C@@H]2O[C@H](CO)[C@@H](O)[C@H](O)[C@H]2O)[C@@H](O[C@@H]2O[C@H](CO)[C@@H](O)[C@H](O)[C@H]2O)[C@H]1O` [BUDDLEJASAPONIN IV]: in the data set with Hepatocyte [26], the Activity worked out at 74.96%.

In the case of `C/C(=C\CC[C@@H](C)[C@H]1CC[C@@]2(C)C3=C(CC[C@]12C)[C@@]1(C)CC[C@H](O)C(C)(C)[C@@H]1CC3=O)C(=O)O`, the Activity in the data set on HepG2 [6] is 20.95 U/L; with HepG2 [27], 24.27 U/L.

For orientation: pIC50 means −log10 of the IC50, conventionally taken in molar units. As for `CC(=O)OC[C@H]1O[C@@H](O[C@H]2C[C@]3(C)[C@H](C[C@@H](O)[C@@H]4[C@@H]([C@]5(C)CC[C@@H](C(C)(C)O)O5)CC[C@]43C)[C@@]3(C)CC[C@H](O)C(C)(C)[C@H]23)[C@H](O[C@@H]2O[C@@H](C)[C@H](O)[C@@H](O)[C@H]2O)[C@@H](O)[C@@H]1O`, in the data set listed under Mus musculus [28], the pIC50 was 4.33.
